≈ marks a conversion by molar mass, not a printed value. Like-named read-outs stand apart in the source and are kept apart here.
What was measured:
[1] = Stability at 60°C (residual content by HPLC); conditions: for residual content: 60°C (about 4% RH)
Procedure: (§1) Contents of the free base of 3-[({1-[(2-amino-9H-purin-9-yl)methyl]cyclopropyl}oxy)methyl]-8,8-dimethyl-3,7-dioxo-2,4,6-trioxa-3λ5-phosphanon-1-yl-pivalate and salts thereof were measured by high performance liquid chromatography (HPLC). The specific measuring conditions are fisted below:
After 1 or 2, 4 and 8 weeks, each sample in the glass vial was taken, dissolved in a solvent mixture of tetrahydrofuran/water (1/1, v/v), and analyzed by HPLC.

[2] = Stability under heat and moisture, 40°C/75% RH (residual content by HPLC); assay type: physicochemical
Procedure: as §1
After 1, 4 and 8 weeks, 5 mg of each sample was taken, dissolved in a solvent mixture of tetrahydrofuran/water (1/1, v/v), and analyzed by HPLC.

[3] = Solubility test at various pH; assay type: physicochemical; conditions: for solubility at 1.5 h: phosphate buffer / phosphoric acid solution, aqueous buffer, thermodynamic from solid
Procedure: 5˜23 mg each of the maleic acid monosalt of the Example and the free base of Comparative Example 1 was placed into a glass bottle. 500 μl each of the various phosphate buffer solution and phosphoric acid solution having a specific pH value was added thereto. The glass bottle was placed in water to maintain a constant temperature of 25° C., and the mixture was stirred for 1.5 h. After filtration, the content in the filtrate was analyzed by HPLC, and the pH of the solution was measured. The measured pH values and the solubilities of the maleic acid monosalt and the free base are represented in the following Table 3.

hepatitis B virus = assay: In vitro anti-HBV activity, HBV DNA by real-time PCR in HepG2.2.15 culture medium; assay type: cell-based
Procedure: (§2) The hepatitis B virus-producing cell line, HepG2.2.15 (M. A. Shels, et al., Proc. Natl. Acad. Sci. USA 84, 1005 (1987)), was cultured in DMEM (Dulbecco's Modified Eagle Media; Life Technologies) containing 10% FBS (Fetal Bovine Serum), 1% ABAM (Antibiotic-Antimycotic) and Geneticin whose final concentration was measured as 400 μg/ml. The cells were cultured to confluency, treated with trypsin, and distributed to 96 well microplate in a density of 2×10^4 cells/well. After 24 h, the medium was changed and the compound treatment was carried out in intervals of 2 days by serially diluting the free base of Comparative Example 1 and the maleic acid monosalt of Example by three fold so that the final concentration was 50 μM to 8 nM in 200 μl of medium. Every test samples were duplicated. After 8 days from the first drug treatment, the culture medium was collected, and the cells were lysed by heating the cells to 100° C. for 10 min. In order to minimize the substances that interfere with the DNA amplification reaction, the culture medium was diluted by ten fold using water. The control group, cell culture medium which was not treated with the drug, was treated in the same manner as the above.

HepG2.2.15 = assay: Cytotoxicity determination (MTT); conditions: for cytotoxicity: HepG2.2.15
Procedure: as §2
(§3) CC50 value of the drug was determined by removing the medium, adding 100 μl of 0.1 mg/ml MTT (Thiazolyl Blue Tetrazolium Bromide: Sigma) to the residue, dyeing the residue for 2 h at 37° C., adding 100 μl of DMSO (Dimethyl Sulfoxide: Sigma), dissolving the resulting mixture by agitating for 2 h at room temperature, and measuring the absorbance at 540 nm.

[4] = Cytotoxicity determination (MTT); conditions: human
Procedure: as §2, §3

[5] = Hygroscopicity (no method described); assay type: physicochemical

## CC(C)(C)C(=O)OCOP(=O)(COC1(Cn2cnc3cnc(N)nc32)CC1)OCOC(=O)C(C)(C)C.CCS(=O)(=O)O [Comparative Example 7, 3-[({1-[(2-amino-9H-purin-9-yl)methyl]cyclopropyl}oxy)methyl]-8,8-dimethyl-3,7-dioxo-2,4,6-trioxa-3λ5-phosphanon-1-yl-pivalate ethanesulfonic acid monosalt]
[1]; Week 1
  residual content: 0.4%

## CC(C)(C)C(=O)OCOP(=O)(COC1(Cn2cnc3cnc(N)nc32)CC1)OCOC(=O)C(C)(C)C.Cc1ccc(S(=O)(=O)O)cc1 [Comparative Example 3, 3-[({1-[(2-amino-9H-purin-9-yl)methyl]cyclopropyl}oxy)methyl]-8,8-dimethyl-3,7-dioxo-2,4,6-trioxa-3λ5-phosphanon-1-yl-pivalate p-toluenesulfonic acid monosalt]
[2]; Week 1
  residual content: 96.5%
[2]; Week 4
  residual content: 71.0%

## CC(C)(C)C(=O)OCOP(=O)(COC1(Cn2cnc3cnc(N)nc32)CC1)OCOC(=O)C(C)(C)C [Comparative Example 1, Free Base of 3-[({1-[(2-amino-9H-purin-9-yl)methyl]cyclopropyl}oxy)methyl]-8,8-dimethyl-3,7-dioxo-2,4,6-trioxa-3λ5-phosphanon-1-yl-pivalate]
[2]; Week 1
  residual content: 99.0%
[2]; Week 4
  residual content: 91.3%
[2]; Week 8
  residual content: 8.4%
[1]; Week 1
  residual content: 98.2%
[1]; Week 4
  residual content: 79.2%
[1]; Week 8
  residual content: 1.2%
[1]; Week 8, listed as free base
  residual content: about 1%
[3]; pH 6 or more
  solubility: ≤ 1000 µg/mL
[3]; pH of 2 or less
  solubility: ≥ 36000 µg/mL
[3]; solution pH 2.0, 25°C
  solubility: 36500 µg/mL (≈ 69.2 mM)
[3]; solution pH 3.2, 25°C
  solubility: 8300 µg/mL (≈ 15.7 mM)
[3]; solution pH 4.0, 25°C
  solubility: 1700 µg/mL (≈ 3.22 mM)
[3]; solution pH 6.5, 25°C
  solubility: 800 µg/mL (≈ 1.52 mM)
Hepatitis B virus; HepG2.2.15, 8 days, HBV DNA in culture medium, read-out: EC50
  EC50: 1100 ± 100 nM
HepG2.2.15
  cytotoxicity: about 7 m M
HepG2.2.15; HepG2.2.15, MTT
  CC50: 7900 ± 3000 nM

## CC(C)(C)C(=O)OCOP(=O)(COC1(Cn2cnc3cnc(N)nc32)CC1)OCOC(=O)C(C)(C)C.Cc1ccc(S(=O)(=O)O)cc1.Cc1ccc(S(=O)(=O)O)cc1 [Comparative Example 4, 3-[({1-[(2-amino-9H-purin-9-yl)methyl]cyclopropyl}oxy)methyl]-8,8-dimethyl-3,7-dioxo-2,4,6-trioxa-3λ5-phosphanon-1-yl-pivalate p-toluenesulfonic acid disalt]
[2]; Week 1
  residual content: 0.0%
[2]; Week 4
  residual content: 0.0%
[2]; Week 8
  residual content: 0.0%

## CC(C)(C)C(=O)OCOP(=O)(COC1(Cn2cnc3cnc(N)nc32)CC1)OCOC(=O)C(C)(C)C.O=C(O)/C=C\C(=O)O [Example, 3-[({1-[(2-amino-9H-purin-9-yl)methyl]cyclopropyl}oxy)methyl]-8,8-dimethyl-3,7-dioxo-2,4,6-trioxa-3λ5-phosphanon-1-yl-pivalate maleic acid monosalt]
[2]; Week 1
  residual content: 99.4%
[2]; Week 4
  residual content: 99.3%
[2]; Week 8
  residual content: 98.3%
[1]; Week 1
  residual content: 99.4%
[1]; Week 4
  residual content: 99.2%
[1]; Week 8
  residual content: 98.2%
[1]; 60°C, stressed condition
  thermal stability (decomposition, in words): remained almost intact without decomposition for up to 8 weeks
[3]; pH 6.5
  solubility relative to the free base: three times higher
[3]; 25 °C, pH range of 2 to 6.5
  solubility at 1.5 h: 3000 to 7000 µg/mL
[3]; solution pH 2.0, 25°C
  solubility at 1.5 h: 5600 µg/mL
[3]; solution pH 3.2, 25°C
  solubility at 1.5 h: 7000 µg/mL
[3]; solution pH 4.0, 25°C
  solubility at 1.5 h: 4200 µg/mL
[3]; solution pH 6.5, 25°C
  solubility at 1.5 h: 2900 µg/mL
Hepatitis B virus; Hepatitis B virus, HepG2.2.15, 192 h
  EC50: 1200 ± 300 nM
Hepatitis B virus; Hepatitis B virus, HepG2.2.15, read-out: activity (in vitro, summary in text)
  EC50: ~1000 nM
[4]
  CC50 at 8 days: 6800 ± 2400 nM
HepG2.2.15
  cytotoxicity: about 7 m M
[5]
  hygroscopicity: non-hygroscopic

## CC(C)(C)C(=O)OCOP(=O)(COC1(Cn2cnc3cnc(N)nc32)CC1)OCOC(=O)C(C)(C)C.CS(=O)(=O)O [Comparative Example 5, 3-[({1-[(2-amino-9H-purin-9-yl)methyl]cyclopropyl}oxy)methyl]-8,8-dimethyl-3,7-dioxo-2,4,6-trioxa-3λ5-phosphanon-1-yl-pivalate methanesulfonic acid monosalt]
[2]; Week 1
  residual content: 50.7%
[2]; Week 4
  residual content: 0.0%
[2]; Week 8
  residual content: 0.0%

## CC(C)(C)C(=O)OCOP(=O)(COC1(Cn2cnc3cnc(N)nc32)CC1)OCOC(=O)C(C)(C)C.O=C(O)/C=C\C(=O)O.O=C(O)/C=C\C(=O)O.O=C(O)/C=C\C(=O)O [Comparative Example 2, 3-[({1-[(2-amino-9H-purin-9-yl)methyl]cyclopropyl}oxy)methyl]-8,8-dimethyl-3,7-dioxo-2,4,6-trioxa-3λ5-phosphanon-1-yl-pivalate maleic acid trisalt]
[2]; Week 1
  residual content: 84.4%
[2]; Week 4
  residual content: 0.0%
[2]; Week 8
  residual content: 0.0%

## CC(C)(C)C(=O)OCOP(=O)(COC1(Cn2cnc3cnc(N)nc32)CC1)OCOC(=O)C(C)(C)C.O=S(=O)(O)c1ccc2ccccc2c1 [Comparative Example 6, 3-[({1-[(2-amino-9H-purin-9-yl)methyl]cyclopropyl}oxy)methyl]-8,8-dimethyl-3,7-dioxo-2,4,6-trioxa-3λ5-phosphanon-1-yl-pivalate naphthalenesulfonic acid monosalt]
[1]; Week 2
  residual content: 74.7%

Reference: US20090325904A1, “MALEIC ACID MONOSALT OF ANTIVIRAL AGENT AND PHARMACEUTICAL COMPOSITION CONTAINING THE SAME” (LG Life Sciences Ltd., priority 2007, published 2009)
